Results on 26 compounds are retold here after patent US20230002334A1, “TRPM8 MODULATORS” (Givaudan SA, priority 2019, published 2023).

Structures can show the parent of a compound that is named as a salt.

In the experiment the target is T1, hTRPM8 (Homo sapiens, UniProt Q7Z2W7).
T1 construct: expressed in transfected cells
T1 sequence (Q7Z2W7 whole entry): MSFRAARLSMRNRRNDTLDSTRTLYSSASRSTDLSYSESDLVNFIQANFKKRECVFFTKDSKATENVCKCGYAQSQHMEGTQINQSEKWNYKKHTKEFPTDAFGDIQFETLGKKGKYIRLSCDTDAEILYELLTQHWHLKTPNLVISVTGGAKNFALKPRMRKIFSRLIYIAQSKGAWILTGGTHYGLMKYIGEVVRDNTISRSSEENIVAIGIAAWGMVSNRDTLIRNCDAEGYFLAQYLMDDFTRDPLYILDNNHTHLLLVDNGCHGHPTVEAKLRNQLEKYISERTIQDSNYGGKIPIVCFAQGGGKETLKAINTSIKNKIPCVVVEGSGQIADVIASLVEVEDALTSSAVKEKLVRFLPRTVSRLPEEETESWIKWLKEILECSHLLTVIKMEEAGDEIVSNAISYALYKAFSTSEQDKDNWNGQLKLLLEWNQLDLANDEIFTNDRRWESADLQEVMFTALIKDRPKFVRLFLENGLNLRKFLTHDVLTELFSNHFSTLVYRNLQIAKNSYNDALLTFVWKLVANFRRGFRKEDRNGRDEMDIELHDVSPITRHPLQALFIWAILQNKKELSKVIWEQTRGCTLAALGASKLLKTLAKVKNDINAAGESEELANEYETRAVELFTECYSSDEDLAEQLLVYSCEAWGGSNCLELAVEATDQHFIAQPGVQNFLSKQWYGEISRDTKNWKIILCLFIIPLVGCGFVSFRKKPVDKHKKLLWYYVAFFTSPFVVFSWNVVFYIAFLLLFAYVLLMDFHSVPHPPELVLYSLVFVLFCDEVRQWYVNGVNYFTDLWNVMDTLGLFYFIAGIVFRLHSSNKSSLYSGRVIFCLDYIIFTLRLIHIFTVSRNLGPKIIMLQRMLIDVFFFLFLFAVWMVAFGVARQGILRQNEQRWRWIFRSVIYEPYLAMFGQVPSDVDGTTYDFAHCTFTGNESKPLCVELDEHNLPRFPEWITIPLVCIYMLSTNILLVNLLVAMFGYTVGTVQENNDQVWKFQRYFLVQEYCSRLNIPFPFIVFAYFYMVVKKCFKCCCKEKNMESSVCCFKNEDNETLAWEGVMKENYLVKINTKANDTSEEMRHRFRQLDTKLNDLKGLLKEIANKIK
The experiment in a line: Assay on TRPM8 modulators: calcium imaging (Fluo-4, Flexstation) in HEK293 cell line stably expressing hTRPM8. The conditions noted are these: HEK293 cells stably expressing hTRPM8, calcium influx, sigmoidal dose-response fit; read-out: EC50. Format: cell-based. In outline:
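Calcium influx monitored by Fluo-4 (2.7 μM with […] probenecid, 1 h 37 °C loading) in HEK293 cells stably expressing hTRPM8, in HEPES buffer pH 7.4 with 2 mM CaCl2. Fluorescence read 15 s before and 105 s after adding serial compound dilutions. Maximal activation relative to solvent and 31.6 μM menthol; EC50 from sigmoidal fit.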
By EC50 is commonly meant the concentration giving half of the maximal effect. In the case of `COc1cc(OC)cc([C@@]2(C)C[C@@H]3[C@@H]([C@@H](C)C2)N(C)OC3(C)C)c1` (racemic) [Compound 86, rac-(3aR,5R,7S,7aR)-5-(3,5-dimethoxyphenyl)-1,3,3,5,7-pentamethyloctahydrobenzo[c]isoxazole], the concentration for a half-maximal effect (EC50) was in the range of 1000 to 35000 nM.
As to `CCCC[C@@H]1CC[C@@H]2[C@@H](C1)C(C)(C)ON2C(C)C` (racemic) [Compound 29, rac-(3aR,5R,7aR)-5-butyl-1-isopropyl-3,3-dimethyloctahydrobenzo[c]isoxazole], the EC50 was 1000 to 35000 nM.
Turning to `Cc1ccncc1C1(C)CC(C)C2C(C1)C(C)(C)ON2C` (centres unmarked) [Compound 2, 1,3,3,5,7-pentamethyl-5-(4-methylpyridin-3-yl)octahydrobenzo[c]isoxazole], the EC50 is 300 to 1000 nM.
Take `COc1cccc([C@@]2(C)C[C@@H]3[C@@H]([C@@H](C)C2)N(C)OC3(C)C)c1` (racemic) [Compound 94, rac-(3aR,5R,7S,7aR)-5-(3-methoxyphenyl)-1,3,3,5,7-pentamethyloctahydrobenzo[c]isoxazole]: the half-maximal effective concentration (EC50) lay within 50 to 300 nM.
On to `C[C@H]1C[C@@](C)(c2ccc3ccccc3c2)C[C@@H]2[C@@H]1N(C)OC2(C)C` (racemic) [Compound 45, rac-(3aR,5R,7S,7aR)-1,3,3,5,7-pentamethyl-5-(naphthalen-2-yl)octahydrobenzo[c]isoxazole], for which the half-maximal effective concentration (EC50) was in the range of 50 to 300 nM.
Regarding `C[C@H]1C[C@@](C)(c2ccc(F)cc2)C[C@H]2[C@H]1N(C)OC2(C)C` (racemic) [Compound 119, rac-(3aS,5R,7S,7aS)-5-(4-fluorophenyl)-1,3,3,5,7-pentamethyloctahydrobenzo[c]isoxazole], the concentration giving a half-maximal response (EC50) fell in the range of 300 to 1000 nM.
For `CCc1ccccc1[C@@]1(C)C[C@@H]2[C@@H]([C@@H](C)C1)N(C)OC2(C)C` (racemic) [Compound 78, rac-(3aR,5R,7S,7aR)-5-(2-ethylphenyl)-1,3,3,5,7-pentamethyloctahydrobenzo[c]isoxazole] the value was 50 to 300 nM; for `CC1CC(C)(c2ccccc2C#N)CC2C1N(C)OC2(C)C` (centres unmarked) [Compound 14, 2-(1,3,3,5,7-pentamethyloctahydrobenzo[c]isoxazol-5-yl)benzonitrile], 50 to 300 nM; for `CC(C)=CC[C@]1(C)CC[C@@H]2[C@@H](C1)C(C)(C)ON2C` (racemic) [Compound 113, rac-(3aR,5S,7aR)-1,3,3,5-tetramethyl-5-(3-methylbut-2-en-1-yl)octahydrobenzo[c]isoxazole], 300 to 1000 nM.
In the case of `Cc1c(Cl)cccc1[C@@]1(C)C[C@@H]2[C@@H]([C@@H](C)C1)N(C)OC2(C)C` (racemic) [Compound 89, rac-(3aR,5R,7S,7aR)-5-(3-chloro-2-methylphenyl)-1,3,3,5,7-pentamethyloctahydrobenzo[c]isoxazole], the concentration for a half-maximal effect (EC50) was in the range of 50 to 300 nM.
`C[C@H]1C[C@@](C)(c2ccccc2F)C[C@@H]2[C@@H]1N(C)OC2(C)C` (racemic) [Compound 81, rac-(3aR,5R,7S,7aR)-5-(2-fluorophenyl)-1,3,3,5,7-pentamethyloctahydrobenzo[c]isoxazole]: the EC50 was 50 to 300 nM.
For the compound `CC(C)CCC1CC(C)C2C(C1)C(C)(C)OC(=O)N2C` (centres unmarked) [Compound 21, 6-isopentyl-1,4,4,8-tetramethyloctahydro-2H-benzo[d][1,3]oxazin-2-one], the EC50 was in the range of 1000 to 35000 nM.
As for `COc1ccc(OC)c(C2(C)CC(C)C3C(C2)C(C)(C)ON3C)c1` (centres unmarked) [Compound 17, 5-(2,5-dimethoxyphenyl)-1,3,3,5,7-pentamethyloctahydrobenzo[c]isoxazole], the EC50 was 50 to 300 nM.
For `Cc1cccc([C@@]2(C)C[C@@H]3[C@@H]([C@@H](C)C2)N(C)OC3(C)C)c1` (racemic) [Compound 43, rac-(3aR,5R,7S,7aR)-1,3,3,5,7-pentamethyl-5-(m-tolyl)octahydrobenzo[c]isoxazole], the EC50 was in the range of 50 to 300 nM.
In the case of `C[C@H]1C[C@@](C)(c2ccc(F)c(F)c2)C[C@@H]2[C@@H]1N(C)OC2(C)C` (racemic) [Compound 84, rac-(3aR,5R,7S,7aR)-5-(3,4-difluorophenyl)-1,3,3,5,7-pentamethyloctahydrobenzo[c]isoxazole], the EC50 fell in the range of 50 to 300 nM.
For `CCOc1ccccc1[C@@]1(C)C[C@@H]2[C@@H]([C@@H](C)C1)N(C)OC2(C)C` (racemic) [Compound 77, rac-(3aR,5R,7S,7aR)-5-(2-ethoxyphenyl)-1,3,3,5,7-pentamethyloctahydrobenzo[c]isoxazole], the EC50 fell in the range of 300 to 1000 nM.
On to `CCC[C@@H]1CC[C@@H]2[C@@H](C1)C(C)(C)ON2CC` (racemic) [Compound 25, rac-(3aR,5R,7aR)-1-ethyl-3,3-dimethyl-5-propyloctahydrobenzo[c]isoxazole], for which the EC50 was 300 to 1000 nM.
`C[C@H]1C[C@@](C)(c2ccc(C#N)cc2)C[C@@H]2[C@@H]1N(C)OC2(C)C` (racemic) [Compound 131, rac-4-((3aR,5R,7S,7aR)-1,3,3,5,7-pentamethyloctahydrobenzo[c]isoxazol-5-yl)benzonitrile]: the EC50 is 50 to 300 nM.
Consider `COc1ccc(C#N)cc1[C@@]1(C)C[C@@H]2[C@@H]([C@@H](C)C1)N(C)OC2(C)C` (racemic) [Compound 133, rac-4-methoxy-3-((3aR,5R,7S,7aR)-1,3,3,5,7-pentamethyloctahydrobenzo[c]isoxazol-5-yl)benzonitrile], for which the EC50 was < 50 nM.
Consider `Cc1cc(F)ccc1[C@@]1(C)C[C@@H]2[C@@H]([C@@H](C)C1)N(C)OC2(C)C` (racemic) [Compound 100, rac-(3aR,5R,7S,7aR)-5-(4-fluoro-2-methylphenyl)-1,3,3,5,7-pentamethyloctahydrobenzo[c]isoxazole], for which the EC50 is < 50 nM.
For `C[C@H]1C[C@@](C)(c2ccc3c(c2)OCO3)C[C@@H]2[C@@H]1N(C)OC2(C)C` (racemic) [Compound 109, rac-(3aR,5R,7S,7aR)-5-(benzo[d][1,3]dioxol-5-yl)-1,3,3,5,7-pentamethyloctahydrobenzo[c]isoxazole] the value was 300 to 1000 nM; for `C[C@H]1C[C@@](C)(c2ccoc2)C[C@@H]2[C@@H]1N(C)OC2(C)C` (racemic) [Compound 110, rac-(3aR,5R,7S,7aR)-5-(furan-3-yl)-1,3,3,5,7-pentamethyloctahydrobenzo[c]isoxazole], 300 to 1000 nM; for `Cc1ccc(C(F)(F)F)cc1[C@@]1(C)C[C@@H]2[C@@H]([C@@H](C)C1)N(C)OC2(C)C` (racemic) [Compound 39, rac-(3aR,5R,7S,7aR)-1,3,3,5,7-pentamethyl-5-(2-methyl-5-(trifluoromethyl)phenyl)octahydrobenzo[c]isoxazole], 300 to 1000 nM.
`CC(C)N1OC(C)(C)[C@@H]2C[C@](C)(c3ccc(F)cc3)C[C@H](C)[C@H]21` (racemic) [Compound 103, rac-(3aR,5R,7S,7aR)-5-(4-fluorophenyl)-1-isopropyl-3,3,5,7-tetramethyloctahydrobenzo[c]isoxazole]: the EC50 was < 50 nM.
Regarding `CC1CC(C)C2C(C1)C(C)(C)ON2C` (centres unmarked) [Compound 5, 1,3,3,5,7-pentamethyloctahydrobenzo[c]isoxazole hydrochloride], the concentration giving a half-maximal response (EC50) was 1000 to 35000 nM.
With `COc1ccc(C2(C)CC(C)C3C(C2)C(C)(C)ON3C)c(OC)c1` (centres unmarked) [Compound 16, 5-(2,4-dimethoxyphenyl)-1,3,3,5,7-pentamethyloctahydrobenzo[c]isoxazole], the 50% effective concentration (EC50) was in the range of 300 to 1000 nM.
